# Laboratory results as given in patent US5135943A, “1H-imidazole derivative compounds and pharmaceutical compositions containing the same” (priority 1984, dated 1992).
# Like-named read-outs stand apart in the source and are kept apart here.
# Columns and labels:
# [1] = Acute toxicity in Swiss mice i.p.; conditions: mouse, in vivo, ip
# Description: Such signs included convulsions and Straub tail(vertical righting of the tail).
# 16 microorganisms = assay: Geometric mean of all MIC measurements, comparative in vitro testing; format: cell-based; conditions: 48 h, SZ vs M4, reading time 48 h; read-out: Geometric means of MIC
# Description: (§1) Minimum Inhibitory Concentrations (MICS) of Sertaconazole were also measured in comparison to four of the compounds described in the Martin Patent, including a compound, referred to herein as Martin Compound 1, which has the same structure as Sertaconazole, expect that the sulfur in the benzothiophene ring is replaced by an oxygen.
# (§2) The results of comparative in vitro testing of Sertaconazole and these four Martin compounds are shown in the following Table II against 16 microorganisms. The reading time is the time interval from the time of inoculation to the time of measurement.
# C. albicans 31 = assay: MIC, comparative in vitro testing against Martin compounds; format: cell-based; conditions: Candida albicans, 31; YNB medium, reading time 48 h; SZ vs M4; read-out: MIC
# Description: as §1, §2
# C. stellatoidea 36232 = assay: as above; format: cell-based; conditions: Candida albicans, 36232, 48 h, reading time 48 h, SZ vs M4
# Description: as §1, §2
# C. guillermondii = assay: as above; format: cell-based; conditions: 48 h, reading time 48 h, SZ vs M4, read-out: MIC
# Description: as §1, §2
# C. krusei 24 = assay: as above; format: cell-based; conditions: Pichia kudriavzevii, 24, 48 h, reading time 48 h, SZ vs M4, read-out: MIC
# Description: as §1, §2
# C. albicans 32 = assay: as above; format: cell-based; conditions: Candida albicans, 32; YNB medium, reading time 48 h; SZ vs M4; read-out: MIC
# Description: as §1, §2
# C. albicans 14 = assay: as above; format: cell-based; conditions: Candida albicans, 14, 48 h, Casitone medium, reading time 48 h; SZ vs M4
# Description: as §1, §2
# C. tropicalis 25 = assay: as above; format: cell-based; conditions: Candida tropicalis, 25, 48 h, YNB medium, reading time 48 h; SZ vs M4
# Description: as §1, §2
# C. pseudotropicalis 21 = assay: as above; format: cell-based; conditions: Kluyveromyces marxianus, 21; Sabouraud medium, reading time 48 h; SZ vs M4; read-out: MIC
# Description: as §1, §2
# C. albicans 15 = assay: as above; format: cell-based; conditions: Candida albicans, 15, 48 h, Casitone medium, reading time 48 h; SZ vs M4
# Description: as §1, §2
# C. albicans ATCC E-10231 = assay: as above; format: cell-based; conditions: Candida albicans, ATCCE10231; Casitone medium, reading time 48 h; SZ vs M4; read-out: MIC
# Description: as §1, §2
# C. parapsilosis 19 = assay: as above; format: cell-based; conditions: 19, 48 h, reading time 48 h, SZ vs M4
# Description: as §1, §2
# rats = assay: Prolonged subacute toxicity in rats; format: in vivo, rat; conditions: p.o.
# Description: (§3) In a study of prolonged subacute toxicity of Miconazole in rats, among other effects, significant hepatomegalias in females with a dosage of under 30 mg/kg p.o. and in males with a dosage of under 60 mg/kg p.o. were observed.
# cutaneous mycosis = assay: Randomized double blind clinical trials, cutaneous mycosis; conditions: 2 % cream (nitrate salts)
# Description: (§4) Human clinical trials were performed with Sertaconazole nitrate and Miconazole nitrate acid addition salts. Randomized double blind trials were carried out with 502 patients suffering from cutaneous mycosis as confirmed by microscopic examination and microbiological culture. 247 patients were treated with 2 % Sertaconazole cream and the remaining 255 patients were treated with 2 % Miconazole cream. All patients received scheduled treatment for 28 days and were followed up for an additional 28 days for possible relapses.
# [2] = test system: Scopulariopsis brevi-caulis; assay: MIC by two-fold dilution, Scopulariopsis brevicaulis; format: cell-based; conditions: Scopulariopsis; 4 strains; read-out: Minimum Inhibitory Concentration
# Description: (§5) Minimum Inhibitory Concentrations (MICS) of Sertaconazole and Miconazole against 107 yeasts, 47 dermatophytes and 4 fungi were determined by a two-fold dilution method.
# [3] = Acute toxicity (LD50) in rat, three administration routes; conditions: in vivo, males
# Description: (§6) Toxicity of Sertaconazole, Microazole and Martin's compounds 1, 2 and 3, as shown below, has been tested by standard methods. Both acute toxicity, subacute toxicity and chronic toxicity were studied
# (§7) Oral, intraperitoneal and subcutaneous acute toxicity of sertaconazole and miconazole have been investigated. LD50 in mouse and rat, male and female, were measured.
# Candida tropicalis = assay: MIC by two-fold dilution, Candida tropicalis; format: cell-based; conditions: read-out: Minimum Inhibitory Concentration
# Description: as §5
# Microsporum canis = assay: MIC by two-fold dilution, Microsporum canis; format: cell-based; conditions: 4 strains, read-out: Minimum Inhibitory Concentration
# Description: as §5
# Chronic toxicity in rats = format: in vivo, rat; conditions: rat, in vivo; 100 mg/kg or more dosage
# Candida s.p. = assay: MIC by two-fold dilution, Candida s.p.; format: cell-based; conditions: Candida; 15 strains; read-out: Minimum Inhibitory Concentration
# Description: as §5
# Trichophyton rubrum = assay: Randomized double blind clinical trials, Trichophyton rubrum infection; format: in vivo, human; conditions: 2 % cream (nitrate salts), 28 days treatment
# Description: as §4
# [4] = Acute toxicity (LD50) in mouse, three administration routes; conditions: in vivo
# Text: (§8) A number of compounds with antimycotic and/or fungicidal properties, which are useful in pharmaceutical compositions, are currently known. These include the commercially successful Miconazole having the formula II [drawing 2] Miconazole has a structure chemically similar to the 1H-imidazole derivative compounds of the invention. Miconazole is effective against a number of yeasts, dermatophytes and fungi. This effectiveness can be measured by culturing these microorganisms in vitro and applying a preparation containing the antimycotic compound, Miconazole. The results of this type of in vitro experiment is expressed in terms of the Minimum Inhibitory Concentration (MIC), i.e. the minimum concentration which inhibits the growth of the microorganism. For example, the MIC for Miconazole against a particular Candida albicans strain is found to be 10.7 micrograms/milliliter. The effectiveness of Miconazole as an antimycotic compound is measured in vivo by applying a suspension containing the drug to the skin of a number of animals and measuring the proportion of animals on which growth of the microorganism is inhibited as a function of time. Typically, after 25 days, about 1/4 of the animals were cured, when treated with a cream containing 2 % by weight Miconazole. Of course, any pharmaceutical preparation for treating a disease in a human must satisfy certain toxicity requirements. […] Toxicity tests have been performed on the IH-imidazole derivative compounds of the invention and on Miconazole and other known compounds having antimycotic properties. In toxicity tests the LD50 (the dose at which 50 % mortality occurs) is measured.
# as §6, §7
# Trichophyton rubrus = assay: MIC by two-fold dilution, Trichophyton rubrus; format: cell-based; conditions: 10 strains, read-out: Minimum Inhibitory Concentration
# Description: as §5
# [5] = test system: Trichophyton menta-grophytes; assay: MIC by two-fold dilution, Trichophyton mentagrophytes; format: cell-based; conditions: 30 strains, read-out: Minimum Inhibitory Concentration
# Description: as §5
# Torulopsis glabrata = assay: MIC by two-fold dilution, Torulopsis glabrata; format: cell-based; conditions: Nakaseomyces glabratus; 10 strains; read-out: Minimum Inhibitory Concentration
# Description: as §5
# Gram-positive germs = assay: MIC by two-fold dilution, Gram-positive germs; format: cell-based; conditions: 21 strains; read-out: Minimum Inhibitory Concentration
# Candida albicans [6] = assay: Vaginal infection by Candida albicans in female mice; format: in vivo; conditions: seven days after infection
# Text: Besides the above in vivo experiments vaginal infection by Candida albicans was studied in female mice. Standard methods were used. […] Similar results were found in experiments where repeated dosages of active compound were used after infection. These in vivo results confirmed the surprising speed of action of Sertaconazole in comparison to the prior art compounds.
# Dermatophytes, Others = assay: MIC by two-fold dilution, other dermatophytes; format: cell-based; conditions: 3 strains; read-out: Minimum Inhibitory Concentration
# Description: as §5
# [7] = test system: Trichophyton mcntagrophytes; assay: Dermal infection in albino female guinea pigs by Trichophyton mentagrophytes; format: in vivo, guinea pig; conditions: for % microbiological healing / Negative Cultures to Total Cultures: 2% cream
# Text: as §8
# Dermal infection in albino female guinea pigs by Trichophyton mcntagrophytes has been studied. Animals were distributed in three groups: a) a control group of infected untreated animals; b) a scrtaconazole group of infected and treated animals; and c) a miconazole group of infected and treated animals. Animals were depleted and a 0.4 ml suspension of the microorganism was applied on the depleted area. Treatment with each of the test drugs was made by application of 1 g of 2% cream on the depleted area on the 4th, 5th and 6th day after infection.
# Candida albicans [8] = assay: MIC by two-fold dilution, Candida albicans; format: cell-based
# Text: as §8, §5
# [9] = Safe dosage based on the toxicity findings; conditions: rat, in vivo
# Description: as §3
# Based on these finds a safe dosage for Miconazole is about 10 mg/kg, while a safe dosage for Sertaconzole is about 150 mg/kg, i.e about 15 times higher.
smiles,measurement,setting,value
"Clc1ccc(C(Cn2ccnc2)OCc2coc3cc(Cl)cc(Cl)c23)c(Cl)c1 (stereo not shown) [Martin compound 4, reference compound]",LD50,[1],< 1000 mg/kg
same,MIC,16 microorganisms,0.518 µg/mL
same,MIC,C. albicans 31,8 µg/mL
same,MIC,C. stellatoidea 36232; Casitone medium,0.06 µg/mL
same,MIC,C. stellatoidea 36232; Sabouraud medium,0.5 µg/mL
same,MIC,C. stellatoidea 36232; YNB medium,0.5 µg/mL
same,MIC,C. guillermondii; Casitone medium,0.5 µg/mL
same,MIC,C. guillermondii; YNB medium,0.5 µg/mL
same,MIC,C. krusei 24; Casitone medium,0.5 µg/mL
same,MIC,C. krusei 24; YNB medium,0.5 µg/mL
same,MIC,C. albicans 32,8 µg/mL
same,MIC,C. albicans 14,0.5 µg/mL
same,MIC,C. tropicalis 25,8 µg/mL
same,MIC,C. pseudotropicalis 21,0.03 µg/mL
same,MIC,C. albicans 15,0.03 µg/mL
same,MIC,C. albicans ATCC E-10231,0.5 µg/mL
same,MIC,C. parapsilosis 19; Sabouraud medium,0.5 µg/mL
same,MIC,C. parapsilosis 19; YNB medium,0.5 µg/mL
"Clc1ccc(COC(Cn2ccnc2)c2ccc(Cl)cc2Cl)c(Cl)c1 (stereo not shown) [Miconazole, reference compound]",dosage with significant hepatomegalias,rats; females,under 30 mg/kg
same,dosage with significant hepatomegalias,rats; males,under 60 mg/kg
same,cases of contact dermatitis,cutaneous mycosis,5 cases
same,MIC,[2],32 µg/mL
same,LD50,"[3]; ip, intraperitoneal",1180 mg/kg
same,LD50,[3]; oral,920 mg/kg
same,LD50,"[3]; sc, subcutaneous",> 5000 mg/kg
same,MIC,Candida tropicalis,5.6 µg/mL
same,MIC,Microsporum canis,2 µg/mL
same,mortality,Chronic toxicity in rats,32%
same,MIC,Candida s.p.,0.95 µg/mL
same,effectiveness against Trichophyton rubrum,Trichophyton rubrum,79%
same,LD50,"[4]; ip, intraperitoneal",~600 mg/kg
same,LD50,"[4]; ip, intraperitoneal, males",662 mg/kg
same,LD50,[4]; po,~2500 mg/kg
same,LD50,"[4]; po, males",2560 mg/kg
same,LD50,"[4]; sc, subcutaneous",> 5000 mg/kg
same,LD50,"[4]; sc, subcutaneous, males",> 5000 mg/kg
same,MIC,Trichophyton rubrus,0.3 µg/mL
same,MIC,[5],2.8 µg/mL
same,MIC,Torulopsis glabrata,1.1 µg/mL
same,MIC,Gram-positive germs,0.88 µg/mL
same,animals healed,Candida albicans [6],12.5%
same,MIC,"Dermatophytes, Others",4 µg/mL
same,% microbiological healing,[7]; 18 days postinfection,6%
same,Negative Cultures to Total Cultures,[7]; 18 days postinfection,3/48
same,% microbiological healing,[7]; 25 days postinfection,28%
same,Negative Cultures to Total Cultures,[7]; 25 days postinfection,13/48
same,% microbiological healing,[7]; 32 days postinfection,44%
same,Negative Cultures to Total Cultures,[7]; 32 days postinfection,21/48
same,proportion of animals cured,"[7]; after 25 days, cream containing 2 % by weight",about 1/4
same,MIC,"Candida albicans [8]; Candida albicans, 52 strains, read-out: Minimum Inhibitory Concentration",10.7 µg/mL
same,MIC,"Candida albicans [8]; a particular Candida albicans strain, read-out: MIC",10.7 µg/mL
same,NOAEL,[9],~10 mg/kg
